Source: the supplement of paper PMC4862054

Legend:
Conditions in all cases: incubation time: 72 h
MFM-223 [1] = assay: drug sensitivity score (DSS), CellTiter-Glo (DSS (AUC-based score)); higher = stronger drug effect (viability inhibition or cytotoxicity); extreme values may be limits of the assay
Method in brief: (§1)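 After 72 h of incubation in 384-well plates with compound at 5 concentrations (10-fold steps, 10,000-fold range set per compound), breast cancer cell lines seeded in 20 µl suspension were read first for CellTox Green fluorescence at 485/520 nm. CellTiter-Glo luminescence was measured next, after 10 min at room temperature. Normalisation on each plate used 0.1 % DMSO and a positive kill control, and the drug sensitivity score was computed from the area under the fitted dose-response curve.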

CAL-120 [2] = assay: as above
Method in brief: as §1

MDA-MB-436 [3] = assay: as above
Method in brief: as §1

BT-549 [4] = assay: as above
Method in brief: as §1

HCC1599 [5] = assay: as above
Method in brief: as §1

HCC1143 [6] = assay: as above
Method in brief: as §1

CAL-148 [7] = assay: as above
Method in brief: as §1

CAL-85-1 [8] = assay: as above
Method in brief: as §1

CAL-51 [9] = assay: as above
Method in brief: as §1

MDA-MB-453 = assay: normalised response (% of control), CellTiter-Glo; higher = more viable cells (100 = DMSO, 0 = benzethonium chloride kill control)
Method in brief: (§2)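 The table gives the normalised signal for a single concentration in each entry. Breast cancer cell lines were seeded (20 µl suspension) into 384-well plates holding compound at 5 concentrations in 10-fold steps over a compound-specific 10,000-fold range and incubated 72 h, then read for CellTox Green fluorescence (485/520 nm) and CellTiter-Glo luminescence. Normalisation on each plate used 0.1 % DMSO (100) and a positive kill control (0).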

MFM-223 [10] = assay: as above
Method in brief: as §2

HDQ-P1 = assay: as above
Method in brief: as §2

DU-4475 = assay: as above
Method in brief: as §2

BT-474 = assay: as above
Method in brief: as §2

CAL-120 [11] = assay: as above
Method in brief: as §2

MDA-MB-231 = assay: as above
Method in brief: as §2

MCF-10A = assay: as above
Method in brief: as §2

MDA-MB-436 [12] = assay: as above
Method in brief: as §2

BT-549 [13] = assay: as above
Method in brief: as §2

MDA-MB-468 = assay: as above
Method in brief: as §2

SK-BR-3 = assay: as above
Method in brief: as §2

HCC1599 [14] = assay: as above
Method in brief: as §2

Hs578T = assay: as above
Method in brief: as §2

HCC1937 = assay: as above
Method in brief: as §2

HCC1143 [15] = assay: as above
Method in brief: as §2

CAL-148 [16] = assay: as above
Method in brief: as §2

CAL-85-1 [17] = assay: as above
Method in brief: as §2

CAL-51 [18] = assay: as above
Method in brief: as §2

Row | SMILES | drug sensitivity score (MFM-223 [1]) | drug sensitivity score (CAL-120 [2]) | drug sensitivity score (MDA-MB-436 [3]) | drug sensitivity score (BT-549 [4]) | drug sensitivity score (HCC1599 [5]) | drug sensitivity score (HCC1143 [6]) | drug sensitivity score (CAL-148 [7]) | drug sensitivity score (CAL-85-1 [8]) | drug sensitivity score (CAL-51 [9]) | normalised response (MDA-MB-453) | normalised response (MFM-223 [10]) | normalised response (HDQ-P1) | normalised response (DU-4475) | normalised response (BT-474) | normalised response (CAL-120 [11]) | normalised response (MDA-MB-231) | normalised response (MCF-10A) | normalised response (MDA-MB-436 [12]) | normalised response (BT-549 [13]) | normalised response (MDA-MB-468) | normalised response (SK-BR-3) | normalised response (HCC1599 [14]) | normalised response (Hs578T) | normalised response (HCC1937) | normalised response (HCC1143 [15]) | normalised response (CAL-148 [16]) | normalised response (CAL-85-1 [17]) | normalised response (CAL-51 [18])
1 | COc1cc([C@@H]2c3cc4c(cc3[C@@H](O[C@@H]3O[C@@H]5CO[C@@H](C)O[C@H]5[C@H](O)[C@H]3O)[C@H]3COC(=O)[C@H]23)OCO4)cc(OC)c1O [Etoposide] | 0 | 2.02 | 7.41 | 5.14 | 9.75 | 4.37 | 7.19 | 0.96 | 8.68 |  |  |  |  |  |  |  |  |  |  |  |  |  |  |  |  |  |  | 
2 | O=C(CCCCCCC(=O)Nc1ccc([C@H]2O[C@@H](CSc3nc(-c4ccccc4)c(-c4ccccc4)o3)C[C@@H](c3ccc(CO)cc3)O2)cc1)NO [Tubacin] | 4.83 | 4.36 | 0 | 2.95 | 4.67 | 3.15 | 0.986 | 7.14 | 5.04 |  |  |  |  |  |  |  |  |  |  |  |  |  |  |  |  |  |  | 
3 | CO[C@H]1/C=C\C=C(/C)C(=O)NC2=CC(=O)C(NCCN(C)C)=C(C[C@@H](C)C[C@H](OC)[C@H](O)[C@@H](C)/C=C(\C)[C@@H]1OC(N)=O)C2=O [Alvespimycin] | 13.1 | 8.6 | 13.1 | 16.1 | 4.92 | 12.1 | 13.3 | 13.9 | 13.4 |  |  |  |  |  |  |  |  |  |  |  |  |  |  |  |  |  |  | 
4 | Clc1ccc(Nc2nnc(Cc3ccncc3)c3ccccc23)cc1 [Vatalanib] | 0 | 0 | 0 | 0 | 0 | 0 | 0 | 0 | 0 |  |  |  |  |  |  |  |  |  |  |  |  |  |  |  |  |  |  | 
5 | C[C@@H](Oc1cc(-c2cnn(C3CCNCC3)c2)cnc1N)c1c(Cl)ccc(F)c1Cl [Crizotinib] | 0 | 0 | 0 | 0 | 0 | 0 | 0 | 0 | 0 |  |  |  |  |  |  |  |  |  |  |  |  |  |  |  |  |  |  | 
6 | Oc1nc(-c2ccc(C(F)(F)F)cc2)nc2c1CSCC2 [XAV-939] (10000 nM) |  |  |  |  |  |  |  |  |  | 81.7% | 89.4% | 86.7% | 87.3% | 73% | 92.8% | 74.5% | 84.5% | 91.8% | 90.5% | 92.1% | 84.5% | 80.6% | 95.9% | 89.7% | 91.4% | 94.4% | 95.8% | 66.6%
7 | CCC1(c2ccc(N)cc2)CCC(=O)NC1=O (stereo not drawn) [Aminoglutethimide] (10000 nM) |  |  |  |  |  |  |  |  |  | 101% | 97.8% | 102% | 101% | 105% | 109% | 103% | 101% | 102% | 98.1% | 97.3% | 97.2% | 108% | 95.1% | 94.5% | 97.4% | 108% | 106% | 145%
